Results as given in patent US20040147595A1, “Biofilm degrading or sloughing compositions and methods” (priority 2001, published 2004).
pEC50: −log10 of the molar value. “And” between values parts separate entries of the source, which are not always exact repeats. Equal values may be shown once. “Also recorded” adds a separate entry of the source. Read-outs that look alike come from different tables or passages of the source.

What was measured:
[1] = system: OHHL induced LuxR dependent expression of GFP; experiment: Quantitative furanone inhibition of the LuxR-PluxI-gfp(ASV) quorum sensor in E. coli MT102 (pJBA89); format: cell-based, Escherichia coli; settings: gradient of furanone concentration lowering RFU to 40% versus OHHL concentration (5-100 nM)
Excerpt: To analyse the AHL antagonist activity of the halogenated furanones we tested the compounds for their ability to inhibit 3oxo-C6-HSL (OHHL) induced LuxR dependent expression of green fluorescent protein (GFP) from a Pgfp(ASV) fusion in the AHL monitor strain E. coli MT102 harbouring pJBA89 (Andersen et al., 2001).
The medium used is minimal ABT containing 0.5% glucose and 0.5% Casamino Acids. In growing cultures of the AHL monitor strain E. coli Mt102 (pJBA89) encoding […] and a P-gfp(ASV) fusion, GFP(ASV) is produced immediately upon OHHL addition specifically from the LuxR controlled P-gfp(ASV) fusion gene. The sensitivity is high (responsive to as little as 3 nm OHHL) and due to the instability built into the GFP (ASV) variant there is no background production of green fluoroscence (Andersen et al., 2001). GFP expression from the AHL monitor strain E. coli MT102 (pJBA89) and the control strain MT102 harbouring the lacl^q, Plas-gfp(ASV) IPTG inducible expression system pMH197 was quantified in the following way. Overnight cultures were diluted four fold in fresh medium and incubated for one hour at 30° C. while OHHL and furanone compounds in the required concentrations were mixed in the wells of microtiter dishes. […] When absolute values were required, green fluoroscence was measured on a fluorometer (model RF-1501; Shimadzu, Tokyo, Japan) act at an excitation wavelength of 475 nm and emission detection at 515 nm. To establish a correlation between the colour code of the ARGUS-50 captured images and green fluorescence, both colour and relative fluorescence units (RFU), were determined for a dilution series of an E. coli MT102 (pJBA89) culture which had been incubated with […]. […]
From the second plot, the furanone concentration reducing the relative activity to 40% (ID60) is determined for each OHHL concentration. […]
To enable easy comparison of the strength of the furanones, an inhibition index (IIX40) is calculated for each furanone compound. […]

[2] = system: las quorum sensing system (lasB-gfp(ASV) Plac-lasR); experiment: pMHLAS lasB-gfp(ASV) reporter in E. coli MT102; format: cell-based, Escherichia coli; settings: for induction of the lasB-gfp(ASV) monitor by AHL compounds: E. coli with pMHLAS, AHLs 0 to 1000 nM
Method: (§1) AHL and furanone bioassay. Strains were grown exponentially in LB or ABt medium supplemented with 0.5% glucose at 30° C., shading at 250 rpm. At an optical density of approximately 0.8. the cultures were diluted and split into subcultures in glass culture flasks. AHLs and furanone 56 were added to appropriate concentrations and the cultures were further incubated at 30° C. under vigorous shaking. Culture samples were retrieved at various time intervals and green fluorescence was measured with a fluorometer (model RF-1501, Shimadzu, Tokyo, Japan) set at an excitation wavelength of 475 nm and emission wavelength of 515 nm. Relative fluorescence was calculated as green fluorescence normalized to 1 ml culture divided by the optical density (OD600 nm.
(§2) Initially, the lasB-gfp(ASV) translational fusion (OdDHL sensor) was thoroughly characterized with respect to its sensitivity and specificity. A culture of E. coli hosting the pMHLAS monitor plasmid was diluted and spilt into several subcultures which were then supplemented with AHLs at concentrations ranging from 0 to 1000 nM. […] When the pMHLAS based reporter system was hosted by PAO-JP2. the OdDHL concentration required for half-maximal activation of the lasB-gfp(ASV) fusion was 8 nM (data not shown). In single copy on the chromosome of PAO-JP2, the OdDHL concentration on required for half-maximal activation of lasB expression was approximately 250 nM (FIG. 2b). Green fluorescent cells were visible by epifluorescence microscopy at a minimal OdDHL concentration of 50 nM (FIG. 2c).
Effect of the furanone in a heterologous background. The direct regulation exerted by the las regulon on lasB expression is well described by numerous studies (Gambello & Iglewski, 1991: Pearson et al., 1994; Pearson et al., 1997). Regulatory complexity is added by the observation that the las quorum sensing circuit itself is subject to global regulators (Albus et al., 1997; Whiteley et al., 2000) and that lasB expression is also controlled by other regulators than LasR (Brumlik & Storey, 1992; Pesci et al., 1999; Schictman et al., 1995). It was, therefore, important to rule out that QSI effect, observed is not caused by furanone interaction with high levels of control. Since there is no AHL-based quorum sensing system present in Escherichia coli (Williams et al., 2000), this bacterium provides an unbiased and well-defined genetic background for studying the direct effects of the furanone on the P. aeruginosa las quorum sensing system. We repeated the above-described experiments using E. coli MT102 as a heterologous host for the reporter system. […] This is likely to be attributed to the increased copy number of the reporter plasmid.

[3] = system: las quorum sensing system (lasB-gfp(ASV) expression); experiment: AHL and furanone bioassay, PlasB-gfp(ASV) Plac-lasR reporter in planktonic PAO-JP2; format: cell-based, Pseudomonas aeruginosa
Method: as §1, §2
Noteworthy, the inhibitory effect of furanone 56 was relieved at increased concentrations of OdDHL.

elastase = experiment: Virulence factor production: elastase (proteolytic) activity of PAO-JP2 supernatant; format: cell-based, Pseudomonas aeruginosa
Method: Measurements of virulence factors. PAO-JP2 was grown in LB medium at 37° C. and shaking at 250 rpm to an OD600 nm of 1.0. The culture was divided into seven subcultures, which were added 0, 70, or 1000 nm OdDHL and 0. 3. or 5 μg/ml furanone 58. The cultures were grown for an additional 4 hours at 37° C. The proteolytic activity was measured as described by Ayora & G{overscore (o)}tz (1994). Azocasein (250 μl 2%, Sigma, St. Louis, Mo.) in 50 mM Tris/HCl and steril-filtered (Ø 0.2 μm) supernatant (150 μl) were incubated for 4 h at […] After precipitation of undigested substrate with trichloroacetic acid (1.2 ml 10%) for 15 minutes, followed by 10 minutes centrifugation at 1000 rpm, NaOH (1.4 ml 1 M) were added to the supernatant. The relative protease activity was measured as the absorbance at 440 nm (OD440 nm) of the supernatant divided by the optical density of the culture (OD600 nm ).

chitinase = experiment: Virulence factor production: chitinase activity of PAO-JP2 supernatant; format: cell-based, Pseudomonas aeruginosa
Method: The chitinase activity assay was performed as described by the assay manufacturer (Loewe Biochemica, Sauerlach, Germany). Supernatant (560 μl) of cultures prepared as described for the elastase assay was mixed with carboxymethyl-chitin-remazol brilliant violet (200 μl) and sodium phosphate buffer (40 μl, 1 M, pH 7.5). The reaction mixture was incubated for 18 h at 40° C. in a waterbath. The reaction was stopped by addition of HCl (200 μl, 2 N) and kept for 15 min on ice. After centrifugation (10 min at 15000 rpm), the absorbance (OD550 nm) of the supernatant was measured. The relative chitinase activity was calculated as OD550 nm/OD600 nm normalized to 1 ml supernatant.

[4] = system: lasB-gfp(ASV) reporter in P. aeruginosa PAO-JP2 biofilm; experiment: OdDHL-mediated signalling in PAO-JP2 flowcell biofilm, lasB-gfp(ASV) reporter, CSLM; format: cell-based, Pseudomonas aeruginosa
Method: P. aeruginosa biofilms. Biofilms were grown at 30° C. in three-dimensional flow cells (Christensen et al., 1999) with individual channel dimensions of 0.3×4×40 mm supplied With ABt minimal medium supplemented with 2% LB. The flow system was assembled and prepared as described by Christensen et al. (1999). The substratum consisted of a microscope glass coverslip (Knittel 24×50 mm st1, Knittel Glaser, Braunschweig, Germany). Cultures for inoculation of the flow channels were prepared in the following way: P. aeruginosa strains were streaked on LB plates with the appropriate antibiotics and incubated for 24 h at 37° C. From each plate a single colony was used for inoculation of 10 ml ABt with 10% LB. The cultures were grown at, 30° C. for 18 h before they were diluted to an OD600 nm of 0.1 in sterile 0.9% NaCl and used for inoculation of the flow channels. Medium flow was kept at a constant rate of 3 mL/h, equivalent to a mean flow velocity of 0.7 mm/s, using a Watson-Marlow 205S peristaltic pump (Watson-Marlow, Falmouth, England). Biofilms were grown for 24 hours before being shifted to media containing AHL and furanone.
Scanning confocal laser microscopy (SCLM). Microscopic inspection and image acquisition were performed an a scanning confocal laser microscope (model TCS4D, Leica Lasertechnik GmbH, Heldelberg, Germany) equipped with a 63×/1.32-0.6 oil objective. The microscope was equipped with a motorized and programmable xy-stage, which was used for monitoring single colonies during the biofilm experiments. At the beginning of each online experiment, the microscope was programmed to track single randomly selected microcolonies; the sensitivity of photo multipliers and the laser intensity were adjusted and thereafter kept constant through out the duration of the experiments. Image scanning was carried out using the 488 nm and 568 nm lines of an Ar/Kr laser for detection of Gfp and Rfp, respectively. Visualization of captured images was performed using the IMARIS software package (Bitplane AG, Zúrich, Switzerland) running on a Silicon Graphics Indigo 2 workstation (Silicon Graphics, Mountain View, Calif. USA).
Inhibition of AHL-mediated signalling in P. aeruginosa biofilms. The lasB-gfp(ASV) reported was integrated into the chromosome of PAO-JP2 to ensure stable segregation and a constant gene dosage of the reported system. The strain was growth in flowcells for 24 hours in ABt-LB medium and a 10-15 μm thick biofilm developed. The media flow was subsequently switched to ABt-LB medium containing the appropriate AHL and furanone concentrations. The development of green fluorescence was monitored online by CSLM for 8 hours.

lasB promotor = settings: Gray et al., 1994; cited from earlier work
lasB promoter = settings: Pearson et al (1995), pKDT17 in PAO-R1; read-out: OdDHL required for half-maximal activation of a similar construct; cited from earlier work
P. aeruginosa = settings: cited from earlier work

SMILES: CCCCC1=C(Br)/C(=C/Br)OC1=O [Compound 2]
- inhibition index (IIX40) [1]: 0.75 mole of furanone per mmole of

SMILES: CCCCCCCC(=O)CC(=O)N[C@H]1CCOC1=O [ODHL, N-[3-oxo-decanoyl]-L-homoserine lactone]
- induction of the lasB-gfp(ASV) monitor by AHL compounds [2]: activated lasB-expression albelt at a lower level; also recorded: less efficient

SMILES: CCCCCC(=O)CC(=O)N[C@H]1CCOC1=O [OOHL, N-[3-oxo-octanoyl]-L-homoserine lactone]
- induction of the lasB-gfp(ASV) monitor by AHL compounds [2]: less efficient

SMILES: CCCCCCCCCC(=O)CC(=O)N[C@H]1CCOC1=O [OdDHL, N-[3-oxo-dodecanoyl]-L-homoserine lactone]
- minimal OdDHL concentration at which green fluorescent cells were visible by epifluorescence microscopy ([3]; mini-Tn5 reporter in PAO-JP2): 50 nM
- pEC50 ([3]; pMHLAS based (plasmid) reporter hosted by PAO-JP2, data not shown, read-out: OdDHL concentration required for half-maximal activation of the lasB-gfp(ASV) fusion): 8.10
- pEC50 ([3]; reporter in single copy on the chromosome of PAO-JP2, read-out: OdDHL concentration required for half-maximal activation of lasB expression): ~6.60 and 6.60
- lowest OdDHL concentration detected by the reporter ([3]; single chromosomal copy, data not shown): 20 nM
- induction of the lasB-gfp(ASV) monitor by AHL compounds [2]: most efficient inducer
- increased responsiveness to OdDHL of the E. coli strain harboring the lasB reporter ([2]; compared with the PAO-JP2 reporter): approx. 10 fold
- elastase activity (elastase; PAO-JP2, 70 nm OdDHL): induced
- elastase activity in furanone-treated culture (elastase; addition of 1 μM OdDHL): entirely restored
- chitinase activity (chitinase; PAO-JP2, 70 nm OdDHL): induced
- chitinase activity in furanone-treated culture (chitinase; addition of 1 μM OdDHL): entirely restored
- lowest OdDHL concentration inducing lasB promoter activity in PAO-JP2 biofilms [4]: 20 nM
- expression of the lasB-gfp(ASV) reporter fusion in biofilm ([4]; 40 nm OdDHL): induced and visible in the single cells within four hours
- induction of the promotor in response to OdDHL addition (lasB promotor): 63 fold
- pEC50 (lasB promoter): 6.00

SMILES: NC[C@H]1O[C@H](O[C@H]2[C@H](O)[C@@H](O[C@H]3O[C@H](CO)[C@@H](O)[C@H](N)[C@H]3O)[C@H](N)C[C@@H]2N)[C@H](N)C[C@@H]1O [tobramycin]
- resistance in the biofilm form compared to the planktonic cells (P. aeruginosa): 50,000 times
